The target in assay [1] is T1, SfMCT (Syntrophobacter fumaroxidans, UniProt A0LNN5).
T1 construct: expressed in transfected cells; host or cells: E. coli JA202 (MC4100 glcA::cat lldP::kan), plasmid pEXT20-SfMCT-3C-10His
T1 sequence (A0LNN5 1-412): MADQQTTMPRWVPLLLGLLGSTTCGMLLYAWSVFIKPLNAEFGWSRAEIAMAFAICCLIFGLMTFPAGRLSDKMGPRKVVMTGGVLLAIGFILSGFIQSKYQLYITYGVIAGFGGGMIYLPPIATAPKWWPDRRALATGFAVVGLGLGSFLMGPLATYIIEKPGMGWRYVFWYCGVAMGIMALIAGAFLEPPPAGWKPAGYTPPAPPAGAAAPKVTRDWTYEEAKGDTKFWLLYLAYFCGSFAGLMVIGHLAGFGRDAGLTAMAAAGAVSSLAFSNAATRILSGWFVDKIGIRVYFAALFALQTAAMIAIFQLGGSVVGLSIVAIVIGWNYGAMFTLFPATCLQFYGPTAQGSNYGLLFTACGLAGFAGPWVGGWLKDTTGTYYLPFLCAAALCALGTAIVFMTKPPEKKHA
Type of assay: cell-based. The procedure:
The cultures were grown at 37 °C and 180 r.p.m. in an incubator shaker (Multitron, Infors HT). Protein expression was induced at OD600 ~0.5 by addition of IPTG to a final concentration of 0.25 mM. After 4 h, bacteria were pelleted (5,200 × g, 10 min, room temperature) and resuspended in uptake buffer (20 mM Bis-Tris propane-HCl (pH 6.7), 250 mM KCl) to a bacteria density of OD600 12. […] Furthermore, [3-3 H] propionic acid sodium salt ([^3H]propionate, American Radiolabeled Chemicals, specific activity 30 Ci/mmol), n-[2,3-3 H] butyric acid sodium salt ([^3H]butyrate, American Radiolabeled Chemicals, specific activity 120 Ci/mmol), and [1–14 C] pyruvic acid sodium salt ([^14C]pyruvate, specific activity 0.055 Ci/mmol American Radiolabeled Chemicals) were also used for transport experiments. […] Uptake experiments were performed in 2 ml reaction tubes (Eppendorf) at 30 °C under agitation (1,000 r.p.m., Thermomixer compact, Eppendorf). […] Bacteria were immediately pelleted by centrifugation (21,000 × g, 4 min, room temperature) and washed two times with 900 μl stop buffer. Finally, bacteria were lyzed in 50 μl 5% (w/v) sodium dodecylsulfate and transferred into a white 96-well plate (Optiplate, PerkinElmer). 150 µl of scintillation cocktail (MicroScint 40, PerkinElmer) were added before measuring each reaction for 2 min with a scintillation counter (TopCount NXT, PerkinElmer). For data analysis, the signal of the empty vector was subtracted from the transporter signal. […] Cpm values of each experiment were normalized with respect to the determined upper plateau value, i.e., the fitted upper plateau value corresponds to 100%. The arithmetic average of three independent experiments was calculated. Three independent and normalized pH-dependence curves were then averaged. For data analysis Prism6 (GraphPad Software) was used. […] Equal amounts of bacteria expressing SfMCT variants were loaded on 14% SDS/polyacrylamide gels. His-tagged transporters were detected using an anti-His5 (Qiagen, catalogue number 34660, primary antibody) at a dilution of 1:3,000 and a goat anti-mouse IgG (H + L) HRP conjugate antibody (Biorad, catalogue number 172-1011, secondary antibody) at a dilution of 1:2,500.

A further assay deals with T2, Y331F SfMCT (Syntrophobacter fumaroxidans, UniProt A0LNN5, Y331F).
T2 construct: expressed in transfected cells; host or cells: E. coli JA202, pEXT20-SfMCT-3C-10His mutant plasmid
Description: [14C]L-lactate transport competition assay, Y331F SfMCT. It counts as cell-based. The settings on record: competition of [14C]L-lactate uptake. As for the experimental part: The cultures were grown at 37 °C and 180 r.p.m. in an incubator shaker (Multitron, Infors HT). Protein expression was induced at OD600 ~0.5 by addition of IPTG to a final concentration of 0.25 mM. After 4 h, bacteria were pelleted (5,200 × g, 10 min, room temperature) and resuspended in uptake buffer (20 mM Bis-Tris propane-HCl (pH 6.7), 250 mM KCl) to a bacteria density of OD600 12. […] Furthermore, [3-3 H] propionic acid sodium salt ([^3H]propionate, American Radiolabeled Chemicals, specific activity 30 Ci/mmol), n-[2,3-3 H] butyric acid sodium salt ([^3H]butyrate, American Radiolabeled Chemicals, specific activity 120 Ci/mmol), and [1–14 C] pyruvic acid sodium salt ([^14C]pyruvate, specific activity 0.055 Ci/mmol American Radiolabeled Chemicals) were also used for transport experiments. […] Cpm values of each experiment were normalized with respect to the determined upper plateau value, i.e., the fitted upper plateau value corresponds to 100%. The arithmetic average of three independent experiments was calculated. […] His-tagged transporters were detected using an anti-His5 (Qiagen, catalogue number 34660, primary antibody) at a dilution of 1:3,000 and a goat anti-mouse IgG (H + L) HRP conjugate antibody (Biorad, catalogue number 172-1011, secondary antibody) at a dilution of 1:2,500.

The target of assay [2] is T1, SfMCT. Description: Micro pH electrode-based transport assay, SfMCT-expressing E. coli JA202. Type of assay: cell-based. The following applies: 10 mM compound (pH 6.5) added to bacterial suspension pH 6.7. The procedure: A measuring set up as previously reported[18] was used for micro pH electrode-based transport measurements. SfMCT was expressed in E. coli JA202 (MC4100 glcA::cat lldP::kan)[15] as described for uptake experiments. After expression, bacteria were pelleted (5,200 × g, 10 min, room temperature), washed twice in assay solution (250 mM KCl, 1 mM MgSO4, 2 mM CaCl2; 5,200 × g, 10 min, room temperature) and finally resuspended in assay solution to a bacterial density of OD600 15. Compounds that were assayed for proton-coupled transport were dissolved in assay solution and the pH was adjusted to 6.5. 800 µl of bacteria suspension were transferred into a 2 ml reaction tube (Eppendorf) and the pH value of the bacterial suspension (extracellular medium) was measured using a micro pH electrode with integrated temperature sensor (InLab Micro Pro, Mettler Toledo) under constant stirring. The pH of the bacterial suspension was adjusted to pH 6.7 using potassium hydroxide and hydrochloric acid. The SevenCompact pH-meter (Mettler Toledo), together with LabX direct pH 2.3 software (Mettler Toledo), were used for automatic recording in 15 s intervals. Measurements were initiated by adding 10 mM of the corresponding compound to the bacterial suspension. All experiments were performed at 24 °C.

Another assay has as its target MCT1. Also on record: method as in Ovens et al., 2010, Biochem. J. 425:523-30. The following applies: reported value, ref Ovens et al., 2010, Biochem. J. 425:523-30; cited from earlier work.

We go through 2 compounds from PMC6573034 (Nature Communications, 2019).

“Also recorded” adds a separate entry of the source.

T2 sequence (A0LNN5 whole entry Y331F): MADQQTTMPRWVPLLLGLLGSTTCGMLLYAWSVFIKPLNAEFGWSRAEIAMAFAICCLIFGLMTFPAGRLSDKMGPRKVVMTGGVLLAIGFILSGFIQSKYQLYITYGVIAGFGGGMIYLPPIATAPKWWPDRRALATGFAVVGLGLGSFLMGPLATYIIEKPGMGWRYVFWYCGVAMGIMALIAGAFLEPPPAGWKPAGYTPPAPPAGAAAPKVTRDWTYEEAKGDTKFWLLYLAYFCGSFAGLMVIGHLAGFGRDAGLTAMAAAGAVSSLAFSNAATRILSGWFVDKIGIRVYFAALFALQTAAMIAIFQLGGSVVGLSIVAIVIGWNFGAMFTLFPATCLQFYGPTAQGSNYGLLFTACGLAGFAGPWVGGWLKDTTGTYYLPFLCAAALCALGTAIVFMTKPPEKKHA

Consider `O=C(O)c1ccccc1S` [TSA, thiosalicylate], for which the Ki on SfMCT [1] (wild-type (WT) SfMCT, competition of [14C]L-lactate uptake) was determined as 120 µM; on Y331F SfMCT it was 1380 µM. Further, on SfMCT [2], the “proton-coupled transport, change of extracellular pH (in words)” value was “not a substrate; also recorded: not transported”.
As for `Cc1n[nH]c(C)c1Cc1sc2c(c1C(=O)N1C[C@H](O)CO1)c(=O)n(C)c(=O)n2CC(C)C` [AR-C155858, reference compound], the “[14C]L-lactate uptake” value at SfMCT [1] (100 µM AR-C155858, control: 100%) came to 103%. Moreover, the Ki at MCT1 is ~0.002 µM.
